# Results taken from ChEMBL document CHEMBL1201862, “PubChem BioAssay data set” (2004).
#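 Step 1: Grow cells in 96-well plates. Step 2: Expose to compound for 48 hours at 5 concentrations. Step 3: Interpolate endpoints linearly; if unreached, use highest concentration. GI50 marks 50% less growth.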 Calls of active or inactive are those of the source. No stated cut-off is given here; in the data, active = GI50 up to about 1.1 µM and inactive = higher.
# Assays:
# Test in all cases: DTP human tumour cell line panel, 48 h
# A549 = test system: A549
# BT-549 = test system: BT-549
# DU-145 = test system: DU-145
# HCT-15 = test system: HCT-15
# IGROV-1 = test system: IGROV-1
# M14 = test system: M14
# MDA-MB-231 = test system: MDA-MB-231
# NCI-H23 = test system: NCI-H23
# NCI-H460 = test system: NCI-H460
# NCI-H522 = test system: NCI-H522
# OVCAR-3 = test system: OVCAR-3
# OVCAR-5 = test system: OVCAR-5
# SF-295 = test system: SF-295
# SN12C = test system: SN12C
# SNB-19 = test system: SNB-19
# SNB-75 = test system: SNB-75
# SR = test system: SR
# SW-620 = test system: SW-620
# UACC-257 = test system: UACC-257
# UACC-62 = test system: UACC-62
Structure (SMILES),GI50 (A549),GI50 (BT-549),GI50 (DU-145),GI50 (HCT-15),GI50 (IGROV-1),GI50 (M14),GI50 (MDA-MB-231),GI50 (NCI-H23),GI50 (NCI-H460),GI50 (NCI-H522),GI50 (OVCAR-3),GI50 (OVCAR-5),GI50 (SF-295),GI50 (SN12C),GI50 (SNB-19),GI50 (SNB-75),GI50 (SR),GI50 (SW-620),GI50 (UACC-257),GI50 (UACC-62)
O=C(O)Cc1ccc(Oc2nc3ccccc3nc2C(=O)O)cc1,> 100 µM (inactive),> 100 µM (inactive),> 100 µM (inactive),> 100 µM,> 100 µM (inactive),> 100 µM (inactive),> 100 µM (inactive),> 100 µM (inactive),> 100 µM (inactive),> 100 µM (inactive),> 100 µM (inactive),> 100 µM (inactive),> 100 µM (inactive),> 100 µM (inactive),> 100 µM (inactive),> 100 µM (inactive),0.0187 µM (active),> 100 µM (inactive),> 100 µM (inactive),> 100 µM (inactive)
NC(=S)NN=C1Cc2ccccc2C1,> 100 µM (inactive),> 100 µM (inactive),> 100 µM (inactive),> 100 µM,> 100 µM (inactive),> 100 µM (inactive),> 100 µM (inactive),> 100 µM (inactive),> 100 µM (inactive),> 100 µM (inactive),> 100 µM (inactive),> 100 µM (inactive),> 100 µM (inactive),> 100 µM (inactive),> 100 µM (inactive),> 100 µM (inactive),> 100 µM (inactive),> 100 µM (inactive),> 100 µM (inactive),> 100 µM (inactive)
Cc1cccc2c(N)c3cccc(C(=O)NCC[N+](C)(C)Cc4ccc([N+](=O)[O-])s4)c3nc12,0.404 µM (active),33.5 µM (inactive),9.1 µM (inactive),3.74 µM,2.85 µM (inactive),16.5 µM (inactive),4.42 µM (inactive),4.51 µM (inactive),1.57 µM (inactive),5.28 µM (inactive),9.04 µM (inactive),11.9 µM (inactive),9.64 µM (inactive),0.424 µM (active),3.22 µM (inactive),17.2 µM (inactive),1.19 µM (inactive),5.4 µM (inactive),23.7 µM (inactive),16.5 µM (inactive)
Cc1oc2c(c1C(=O)c1ccccc1)C(=O)c1ccccc1C2=O,14.7 µM (inactive),6.19 µM (inactive),11.8 µM (inactive),4.51 µM,4.99 µM (inactive),4.28 µM (inactive),2.24 µM (inactive),2.01 µM (inactive),9.38 µM (inactive),2.3 µM (inactive),2.26 µM (inactive),15.2 µM (inactive),9.27 µM (inactive),11.7 µM (inactive),9.91 µM (inactive),6.78 µM (inactive),3.24 µM (inactive),1.92 µM (inactive),3.61 µM (inactive),2.98 µM (inactive)
NC(=O)C[C@H](NC(=O)C1(NC(=O)[C@H](Cc2ccc(CP(=O)(O)O)cc2)NC(=O)C(=O)O)CCCCC1)C(=O)NCCCc1cccc2ccccc12,> 10 µM (inactive),> 10 µM (inactive),> 10 µM (inactive),> 10 µM,> 10 µM (inactive),> 10 µM (inactive),> 10 µM (inactive),> 10 µM (inactive),> 10 µM (inactive),> 10 µM (inactive),> 10 µM (inactive),> 10 µM (inactive),> 10 µM (inactive),> 10 µM (inactive),> 10 µM (inactive),> 10 µM (inactive),1.82 µM (inactive),> 10 µM (inactive),> 10 µM (inactive),> 10 µM (inactive)
CCSC12OC3(CCCCCN3C1=O)C1C(=O)N(c3ccccc3)C(=O)C12 (stereo not given),> 100 µM (inactive),> 100 µM (inactive),> 100 µM (inactive),> 100 µM,> 100 µM (inactive),> 100 µM (inactive),> 100 µM (inactive),> 100 µM (inactive),> 100 µM (inactive),> 100 µM (inactive),> 100 µM (inactive),> 100 µM (inactive),> 100 µM (inactive),> 100 µM (inactive),> 100 µM (inactive),> 100 µM (inactive),> 100 µM (inactive),> 100 µM (inactive),> 100 µM (inactive),> 100 µM (inactive)
Oc1ccc2ccccc2c1-c1c(Nc2ccccc2)ccc2ccccc12,18.5 µM (inactive),16.3 µM (inactive),17.3 µM (inactive),> 38 µM,5.73 µM (inactive),11.7 µM (inactive),0.498 µM (active),15.6 µM (inactive),15.4 µM (inactive),15.8 µM (inactive),9.4 µM (inactive),16.3 µM (inactive),16.8 µM (inactive),27 µM (inactive),18.5 µM (inactive),16.1 µM (inactive),16 µM (inactive),11.4 µM (inactive),18.9 µM (inactive),14.9 µM (inactive)
